Results taken from patent US20040048380A1, “Chimeric vectors and their use for heterologous genes transfer” (priority 2003, published 2004).

Assays:
HeLa cells [1] = test: Transduction efficiency by GFP reporter gene expression (FACS); assay type: cell-based; settings: peptide 4.86 μM, molar excess of about 2000 times; FIG. 5b
Experimental: FIG. 5. Chimeric phages transduce eukaryotic cells in a receptor-dependent way. Cells are incubated for 1 hour at 4° C. and for 3 hours at 37° C. with 2×10^13 particles of Pb-GFP phage or ΔPb-GFP phage. After 72 hours said cells are analyzed with FACS. For competition tests they are pre-incubated with GRGDSP or GRGESP peptides (4.86 μM, corresponding to a molar excess of about 2000 times) for 1 hour at 4° C. and then incubated with chimeric phages. Data are analyzed with WinMDI2.8 software. 10^4 cells for each well are counted. a) White bars correspond to ΔPb-GFP phages; b) striped bars correspond to Pb-GFP b) phage.
The expression of GFP reporter gene (Green Fluorescent Protein) was carried out by FACS analysis as follows: 1×10^5 cells (HeLa, Cs-1/β3 or Cs-1) were plated in 6-portion wells. […] After the washings and 72 hours of incubation in fresh medium the expression levels of GFP protein were measured by FACS. The specificity of the measured signal was evaluated also in presence of GRGDSP or GRGESP peptides, pre-incubating the cells for 1 hour, with peptide concentration of 4.86 μM, corresponding to a molar excess of about 2000 times and maintaining said concentrations in the following incubations. 10^4 cells were measured for each sample. […]

HeLa cells [2] = test: Phage micropanning, internalization (37° C.), with or without kinase inhibitors; assay type: cell-based; settings: Wortammannin 1 μM, ML-7 2 μM, FIG. 4
Text: FIG. 4. Effect of the inhibitors of Wortammanin and ML-7 kinases on cell internalization. 10^12 particles of ΔPb phage (white bars) or of Pb phage (striped bars) are adsorbed on HeLa cells. The internalized phage is recovered and titrated. […] Data are shown as percentages of control enrichments carried out without inhibitors. Th results are average values of three different tests carried out in two series; SD (Standard Deviation) is also shown.
The micropanning on HeLa and CS-1 or CS-1/β3 cells was carried out […] at 4° C. and at 37° C. in order to quantify the bond and the internalization of chimeric phages, respectively. […] The eluates were titrated by ELISA on a plate coated with an anti-M13 antibody detected with anti-pVIII-HRP antibody, using as standard a phage stock with known titer.
Phage internalization was evaluated on cells which have been pre-incubated for 30′ at 37° C. with chlorokine 100 nM (Sigma) alone or together with an inhibitor of PI3K (phosphatidylinositol-3OH kinase), 1 μM Wortammannin (Sigma) or with an inhibitor of myosin light chain kinase ML-7 2 μM hydrochloride (Calbiochem, La Jolla, Calif.). […]
In short, the experiment was carried out as follows: 7.5×10^4 cells/well are plated and incubated with 10^12 chimeric phage particles. The results are expressed as enrichment factors with respect to control phages. […]

| Molecule | inhibition of the transduction of HeLa cells by ΔPb-GFP phage (HeLa cells [1]) | effect of kinase inhibitor on internalization of Pb and ΔPb chimeric phages (HeLa cells [2]) |
| --- | --- | --- |
| GRGDSP | up to 90% |  |
| O=S(=O)(c1cccc2c(I)cccc12)N1CCCNCC1 [ML-7] |  | not |
| GRGESP | not observed |  |
| COC[C@H]1OC(=O)c2coc3c2[C@@]1(C)C1=C(C3=O)[C@@H]2CCC(=O)[C@@]2(C)C[C@H]1OC(C)=O [Wortammannin] |  | inhibited |
